Assay: in vivo
Conditions: male, rat, in vivo; for AUC(0-t): AUC0-t of 100; for AUC(0-inf): AUC0-∞ of 100; for Cmax: Cmax of 100; for Tmax: Tmax of 100; for MRT: MRT of 100; for half-life: T1/2 of 100
Protocol: A pharmacokinetic study of 151 was conducted in SD rats. The study consisted of two dose levels at 1.0 (iv) and 10 (oral) mg/kg. The blood samples were collected at predetermined times from rats and centrifuged to separate plasma. An LC/MS/MS method was developed to determine the test article in plasma samples. The pharmacokinetic parameters of 151 following iv and oral administration to SD rats were calculated. The absolute bioavailability was evaluated.
The final concentration of the test article was 0.2 mg/mL for iv administration and 1.0 mg/mL for oral administration. The test article solutions were administered using the most recent body weight for each animal.
Blood (approximately 0.3 mL) were collected via orbital plexus into tubes containing sodium heparin at 0.25, 0.5, 1, 2, 3, 5, 7, 9, and 24 hours after oral administration; at 5 min, 15 min, 0.5, 1, 2, 3, 5, 7, 9 and 24 hours after iv administration. Samples were centrifuged for 5 min, at 4° C. with the centrifuge set at 11,000 rpm to separate plasma. The obtained plasma samples were stored frozen at a temperature of about −70° C. until analysis.
Frozen plasma samples were thawed at room temperature and vortexed thoroughly. With a pipette, an aliquot (30 μL) of plasma was transferred into a 1.5-mL conical polypropylene tube. To each sample, 160 μL of acetonitrile were added. The samples were then vigorously vortex-mixed for 1 min. After centrifugation at 11000 rpm for 5 min, a 15 μL aliquot of the supernatant was injected into the LC-MS/MS system for analysis.
Calibration standards were prepared by spiking 30 μL of the 151 standard solutions into 30 μL of heparinized blank rat plasma. The nominal standard concentrations in the standard curve were 1.00, 3.00, 10.0, 30.0, 100, 300, 1000 and 3000 ng/mL.
The analysis was performed using an LC-MS/MS system consisting of the following components—HPLC system: Agilent 1200 series instrument consisting of G1312B vacuum degasser, G1322A binary pump, G1316B column oven and G1367D autosampler (Agilent, USA); MS/MS system: Agilent 6460 triple quadrupole mass spectrometer, equipped with an APCI Interface (Agilent, USA); Data system: MassHunter Software (Agilent, USA).
Chromatographic separation was carried out at room temperature—Analytical column: C8 column (4.6 mm×150 mm I.D., 5 μm, Agilent, USA); Mobile phase: Acetonitrile:10 mM ammonium acetate (75:25, v/v); Flow rate: 0.80 mL/min; Injection volume: 15 μL.
The mass spectrometer was operated in the positive mode. Ionization was performed applying the following parameters: gas temperature, 325° C.; vaporizer temperature, 350° C.; gas flow, 4 L/min; nebulizer, 20 psi; capillary voltage, 4500 V; corona current, 4 μA. 151 was detected using MRM of the transitions m/z 283→m/z 123 and m/z 283→m/z 251, simultaneously. The optimized collision energies of 25 eV and 10 eV were used for m/z 123 and m/z 251, respectively.
Quantification was achieved by the external standard method. Concentrations of the test article were calculated using a weighted least-squares linear regression (W=1/x^2).
The pharmacokinetic parameters were evaluated using WinNonlin version 5.3 (Pharsight Corp., Mountain View, Calif., USA), assuming a non-compartmental model for drug absorption and distribution. • AUC0-t is the area under the plasma concentration-time curve from time zero to last sampling time, calculated by the linear trapezoidal rule. • AUC0-∞ is the area under the plasma concentration-time curve from time zero extrapolating to infinity. • T1/2 is the elimination half-life associated with the terminal (log-linear) elimination phase, which is estimated via linear regression of time vs. log concentrations. • CL is the total body clearance. • Vss is the volume of distribution at steady-state.

[1] = Sprague-Dawley (SD), iv, 1 mg/kg, Plasma Concentration of 100
[2] = Sprague-Dawley (SD), po, 10 mg/kg
[3] = Sprague-Dawley (SD), po, 10 mg/kg, Plasma Concentration of 100

Which results are given for CN1CCN(C(=O)C2C3CCC(O3)C2C(=O)O)CC1 (centres unmarked) [Compound 100, 3-(4-methylpiperazine-1-carbonyl)-7-oxa-bicyclo[2,2,1]-heptane-2-carboxylic acid]?
concentration at 0.083 h [1]: 646 ng/mL; concentration at 0.25 h [1]: 345 ng/mL; concentration at 0.5 h [1]: 308 ng/mL; concentration at 1 h [1]: 257 ng/mL; concentration at 2 h [1]: 125 ng/mL; concentration at 3 h [1]: 32.2 ng/mL; concentration at 5 h [1]: 10.2 ng/mL; AUC(0-t) [2]: 3370 ng·h/mL; AUC(0-inf) [2]: 3430 ng·h/mL; Cmax [2]: 1450 ng/mL; concentration at 0.5 h [3]: 1450 ng/mL; concentration at 1 h [3]: 1160 ng/mL; concentration at 2 h [3]: 781 ng/mL; concentration at 9 h [3]: 31.3 ng/mL; Tmax [2]: 40.2 min; AUC(0-t) (Sprague-Dawley, iv, 1 mg/kg): 681 ng·h/mL; AUC(0-inf) (Sprague-Dawley, iv, 1 mg/kg): 694 ng·h/mL; Cmax (Sprague-Dawley, iv, 1 mg/kg): 646 ng/mL; MRT (Sprague-Dawley, iv, 1 mg/kg): 69.6 min; half-life (Sprague-Dawley, iv, 1 mg/kg): 52.8 min; Tmax (Sprague-Dawley, iv, 1 mg/kg): 4.98 min; Cmax of 100 (Sprague-Dawley, po, 10 mg/kg): 1447 ng/mL; Tmax of 100 (Sprague-Dawley, po, 10 mg/kg): 30 min; AUC(0-t) (Sprague-Dawley, po, 10 mg/kg): 2800 ng·h/mL; AUC(0-inf) (Sprague-Dawley, po, 10 mg/kg): 2860 ng·h/mL; Cmax (Sprague-Dawley, po, 10 mg/kg): 1430 ng/mL; MRT (Sprague-Dawley, po, 10 mg/kg): 126 min; half-life (Sprague-Dawley, po, 10 mg/kg): 82.8 min; Tmax (Sprague-Dawley, po, 10 mg/kg): 30 min

— patent US20160264593A1 (priority 2013, published 2016)
